Patent US7314940B2, “Jun kinase inhibitors” (Eisai Co., Ltd., priority 2001, dated 2008)

Legend:
Format in all cases: biochemical
JNK3 = JNK3 (Homo sapiens, UniProt P53779); assay: JNK3 SPA assay; settings: phosphorylation of GST-c-Jun, 3.33 μM ATP
Protocol: (§1) JNK1, JNK2, JNK3—SPA Assay
(§2) • 1. Compound is dissolved in DMSO to a convenient concentration and this is diluted in 10% DMSO to a five times concentrate of the desired starting concentration (frequently 1: 100). • 2. 10 μl of 500 mM EDTA is added to alternative wells of the Opti-plate row, which will receive kinase reaction plus DMSO. This creates the negative control. • 3. For the JNK2 and JNK3 assay, compounds are prepared in six 2-fold dilutions with water and each concentration is tested in duplicate. For the JNK1 assay compounds are prepared in four 5-fold dilutions with water which are tested in triplicate. Controls are treated identically. • 4. 20 μl per well of each compound concentration is transferred to an Opti-plate, in duplicate. • 5. 30 μl (JNK2/3 SPA) or 50 μl (JNK1 SPA) of substrate solution (25 mM HEPES pH 7.5, 10 mM magnesium acetate with 3.33 μM ATP (JNK2/3) or 2 μM ATP (JNK1), approximately 7.5 kBq [γ-^33P] ATP, GST-c-Jun, in water) is added to each well. • 6. 50 μl (JNK2/3 SPA) or 30 gl (JNK1 SPA) of kinase solution (JNK in 25 mM HEPES pH 7.5, 10 mM Mg Acetate) is added to each well.
(§3) • 7. The plate is incubated for 30 minutes at room temperature. • 8. 100 μl of bead/stop solution is added to each well (5 mg/ml glutathione-PVT-SPA beads, 40 mM ATP in PBS). • 9. Plates are sealed and incubated for 30 minutes at room temperature, centrifuged for 10 minutes at 2500 g and counted. • 10. The IC50 values are calculated as the concentration of the compound being tested at which the phosphorylation of c-Jun is decreased to 50% of the control value.

p38 MAP kinase = molecular target: T1, p38 MAP kinase (Homo sapiens, UniProt Q16539); assay: p38 ELISA; settings: phosphorylation of GST-ATF2, 50 μM ATP
T1 construct: purchased Upstate
T1 sequence (Q16539 whole entry): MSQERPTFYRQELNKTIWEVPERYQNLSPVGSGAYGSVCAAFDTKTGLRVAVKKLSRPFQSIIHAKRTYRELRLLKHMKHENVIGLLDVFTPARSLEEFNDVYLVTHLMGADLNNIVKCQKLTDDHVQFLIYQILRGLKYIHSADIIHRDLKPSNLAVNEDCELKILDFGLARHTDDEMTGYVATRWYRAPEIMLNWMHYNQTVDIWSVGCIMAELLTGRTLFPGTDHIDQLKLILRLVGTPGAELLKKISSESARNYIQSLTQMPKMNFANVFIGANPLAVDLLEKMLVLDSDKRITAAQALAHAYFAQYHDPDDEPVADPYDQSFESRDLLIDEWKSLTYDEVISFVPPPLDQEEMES
Protocol: Active p38 kinase (100 ng; Upstate) was added to 2 μg GST-ATF2 substrate (NEB) in 250 mM Hepes pH 7.5/100 mM MgAc/50 μM ATP (final) in the presence or absence of compounds in 50 μl. The mixture was incubated at 30° C. for 1 hour, and then diluted with 200 μl PBS-Tween (0.05%). From this, duplicate volumes of 100 μl were added to a Reacti-Bind glutathione coated plate (Pierce) and incubated for 1 hour. After washing 3 times with PBS-Tween (0.05%), rabbit anti-phospho-ATF2 (Thr71) antibody (NEB) was added at 1:500, and incubated for another hour at room temperature. After 3 additional washes with PBS-Tween (0.05%), 100 μl of anti-rabbit IgG alkaline phosphatase-conjugated secondary antibody (Sigma) was added at 1:1000, the reaction was incubated for a further hour, washed 3 times, and then phosphatase substrate (Sigma) was added (100 μl per well; 3 tablets in 5 ml water). After incubation in the dark at 37° C. for 1 hour, the reaction mixture was transferred to a clear 96 well plate, and the absorbance at 405 nm was read. The IC50 values are calculated as the concentration of the compound being tested at which the phosphorylation of ATF2 is decreased to 50% of the control value.

JNK2 = JNK2 (Homo sapiens, UniProt P45984); assay: JNK2 SPA assay; settings: phosphorylation of GST-c-Jun, 3.33 μM ATP
Sequence of JNK2 (P45984 whole entry): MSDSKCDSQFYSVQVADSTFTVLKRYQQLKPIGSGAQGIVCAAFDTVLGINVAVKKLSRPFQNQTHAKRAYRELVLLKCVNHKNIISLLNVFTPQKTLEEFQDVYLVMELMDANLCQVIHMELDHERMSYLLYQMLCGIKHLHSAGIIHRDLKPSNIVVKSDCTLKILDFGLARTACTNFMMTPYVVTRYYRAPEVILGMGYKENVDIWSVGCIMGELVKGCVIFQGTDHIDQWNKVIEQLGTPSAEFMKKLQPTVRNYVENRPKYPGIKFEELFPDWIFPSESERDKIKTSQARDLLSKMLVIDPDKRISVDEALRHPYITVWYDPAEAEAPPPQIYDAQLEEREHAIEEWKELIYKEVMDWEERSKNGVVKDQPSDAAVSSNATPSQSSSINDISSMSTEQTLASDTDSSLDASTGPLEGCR
Protocol: as §1, §2, §3

JNK1 = JNK1 (Homo sapiens, UniProt P45983); assay: JNK1 SPA assay; settings: phosphorylation of GST-c-Jun, 2 μM ATP
Sequence of JNK1 (P45983 whole entry): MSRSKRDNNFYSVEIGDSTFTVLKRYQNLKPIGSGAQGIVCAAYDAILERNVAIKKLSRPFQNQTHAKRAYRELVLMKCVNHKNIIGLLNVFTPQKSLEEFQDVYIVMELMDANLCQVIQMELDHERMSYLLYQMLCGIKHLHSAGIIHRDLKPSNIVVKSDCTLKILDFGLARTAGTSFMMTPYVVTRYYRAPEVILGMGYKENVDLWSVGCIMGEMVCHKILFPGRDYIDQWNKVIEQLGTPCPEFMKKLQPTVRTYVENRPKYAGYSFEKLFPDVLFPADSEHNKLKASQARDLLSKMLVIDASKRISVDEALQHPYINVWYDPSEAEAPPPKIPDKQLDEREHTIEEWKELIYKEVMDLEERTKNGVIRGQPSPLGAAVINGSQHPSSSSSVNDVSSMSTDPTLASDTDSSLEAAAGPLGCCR
Protocol: as §1, §2, §3

Sequence of JNK3 (P53779 whole entry): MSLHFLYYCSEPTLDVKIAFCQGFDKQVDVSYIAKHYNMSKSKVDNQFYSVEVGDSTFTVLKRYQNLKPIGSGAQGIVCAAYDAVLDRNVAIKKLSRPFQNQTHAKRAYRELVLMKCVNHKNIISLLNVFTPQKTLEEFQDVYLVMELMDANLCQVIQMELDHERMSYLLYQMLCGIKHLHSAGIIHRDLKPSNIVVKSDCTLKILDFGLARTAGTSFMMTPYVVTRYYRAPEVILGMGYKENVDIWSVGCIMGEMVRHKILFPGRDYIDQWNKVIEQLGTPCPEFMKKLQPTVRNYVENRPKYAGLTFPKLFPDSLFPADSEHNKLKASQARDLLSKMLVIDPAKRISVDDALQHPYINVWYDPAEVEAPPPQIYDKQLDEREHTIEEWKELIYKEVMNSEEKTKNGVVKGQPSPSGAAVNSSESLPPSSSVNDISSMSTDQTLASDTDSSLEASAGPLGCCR

Structure (SMILES)	IC50 (JNK3) [µM]	IC50 (p38 MAP kinase) [µM]	IC50 (JNK2) [µM]	IC50 (JNK1) [µM]
CCCNc1nccc(-c2c(-c3ccc(F)cc3)nc3n2[C@@H](COc2ccc4ccccc4n2)CC3)n1	0.295			
O=C(NC[C@@H]1CCc2nc(-c3ccc(F)cc3)c(-c3ccnc(NC4CCC4)n3)n21)c1ccccc1	0.054		0.083	0.412
CCNc1nccc(-c2c(-c3ccc(F)cc3)nc3n2[C@H](COc2ccc4cccc([N+](=O)[O-])c4n2)CC3)n1	0.086		0.038	0.137
Fc1ccc(-c2nc3n(c2-c2ccnc(NC4CCC4)n2)[C@H](CNc2ccccn2)CC3)cc1	0.038		0.126	0.524
CCNc1nccc(-c2c(-c3ccc(F)cc3)nc3n2[C@H](Cn2cccc2)CC3)n1	0.014	0.059	0.013	0.027
COc1ccc(CSC[C@@H]2CCc3nc(-c4ccc(F)cc4)c(-c4ccnc(NC5CCC5)n4)n32)cc1	0.03	0.148		0.094
CCNc1nccc(-c2c(-c3ccc(F)cc3)nc3n2[C@H](CN2C(=O)CCC2=O)CC3)n1	0.017			
O=C1CCC(=O)N1C[C@@H]1CCc2nc(-c3ccc(F)cc3)c(-c3ccnc(NC4CCC4)n3)n21	0.006			0.06
COc1ccc(COC[C@@H]2CCc3nc(-c4ccc(F)cc4)c(-c4ccnc(NC5CCC5)c4)n32)cc1	0.023			
COc1ccc(COC[C@H]2CCc3nc(-c4ccc(F)cc4)c(-c4ccnc(NC5CCC5)c4)n32)cc1	0.301			

Second part, the compound after the results:

IC50 (JNK3) [µM]	IC50 (p38 MAP kinase) [µM]	IC50 (JNK2) [µM]	IC50 (JNK1) [µM]	Structure (SMILES)
0.088	0.27	0.052	0.183	CCCNc1nccc(-c2c(-c3ccc(F)cc3)nc3n2[C@H](COc2ccc4ccccc4n2)CC3)n1
0.091	0.619	0.25	0.636	CCCNc1nccc(-c2c(-c3ccc(F)cc3)nc3n2[C@H](Cn2ccc4ccccc42)CC3)n1
0.15				CCCNc1nccc(-c2c(-c3ccc(F)cc3)nc3n2[C@@H](Cn2ccc4ccccc42)CC3)n1
0.061	0.696	0.125	0.125	CCNc1nccc(-c2c(-c3ccc(F)cc3)nc3n2[C@H](Cn2ccc4cccc(F)c42)CC3)n1
0.029	0.185	0.125	0.313	CCNc1nccc(-c2c(-c3ccc(F)cc3)nc3n2[C@H](COc2ncccn2)CC3)n1
0.071		0.114	0.249	Fc1ccc(-c2nc3n(c2-c2ccnc(NC4CCC4)n2)[C@H](COc2ccnc4ccccc24)CC3)cc1
0.025		0.03	0.078	Cc1cc(OC[C@@H]2CCc3nc(-c4ccc(F)cc4)c(-c4ccnc(NC5CCC5)n4)n32)c2ccccc2n1
0.053			0.248	Fc1ccc(-c2nc3n(c2-c2ccnc(NC4CCC4)n2)[C@H](/C=C/c2cccs2)CC3)cc1
0.007			0.022	Fc1ccc(-c2nc3n(c2-c2ccnc(NC4CCC4)n2)[C@H](Cn2ccnc2)CC3)cc1
0.008			0.092	Fc1ccc(SC[C@@H]2CCc3nc(-c4ccc(F)cc4)c(-c4ccnc(NC5CCC5)n4)n32)cc1
0.01				Fc1ccc(-c2nc3n(c2-c2ccnc(NC4CCC4)n2)[C@H](CC2CCCC2)CC3)cc1
